Test results reported in patent US20220220106A1, “QUINOLINE COMPOUNDS AND PHARMACEUTICAL COMPOSITIONS AND USES THEREOF” (Academy of Military Medical Sciences, priority 2019, published 2022).

Tests used:
[1] = system: Enterovirus 71 (EV71) H strain; experiment: In vitro anti-EV71 activity (antiviral activity in RD cells, CellTiter-Glo); format: cell-based; conditions: for in vitro anti-EV71 activity, in words: EV71, RD cells; for IC50: Enterovirus A, 96 h, EV71 H strain, RD cells, 4 days, CellTiter-Glo, read-out: IC50
Procedure, shortened: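 RD cells infected with 100TCID50 EV71 in DMEM+2% FBS, with compound in 10-point three-fold dilutions, cultured 4 days at 37° C. Cell viability by CellTiter-Glo luminescence; inhibition rate relative to cell control fitted to S-curve for IC50. TD50 derived likewise; SI=TD50/IC50.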

[2] = biological target: T1, mTOR kinase (Homo sapiens, UniProt P42345); experiment: In vitro inhibitory activity on mTOR kinase (TR-FRET, GFP-4E-BP1 substrate); format: biochemical; conditions: for IC50: 0.5 μg/mL mTOR, 0.4 μM GFP-4E-BP1, 3 μM ATP
T1 construct: purchased Thermo Fisher PV4753
T1 sequence (P42345 1360-2549 limits assumed): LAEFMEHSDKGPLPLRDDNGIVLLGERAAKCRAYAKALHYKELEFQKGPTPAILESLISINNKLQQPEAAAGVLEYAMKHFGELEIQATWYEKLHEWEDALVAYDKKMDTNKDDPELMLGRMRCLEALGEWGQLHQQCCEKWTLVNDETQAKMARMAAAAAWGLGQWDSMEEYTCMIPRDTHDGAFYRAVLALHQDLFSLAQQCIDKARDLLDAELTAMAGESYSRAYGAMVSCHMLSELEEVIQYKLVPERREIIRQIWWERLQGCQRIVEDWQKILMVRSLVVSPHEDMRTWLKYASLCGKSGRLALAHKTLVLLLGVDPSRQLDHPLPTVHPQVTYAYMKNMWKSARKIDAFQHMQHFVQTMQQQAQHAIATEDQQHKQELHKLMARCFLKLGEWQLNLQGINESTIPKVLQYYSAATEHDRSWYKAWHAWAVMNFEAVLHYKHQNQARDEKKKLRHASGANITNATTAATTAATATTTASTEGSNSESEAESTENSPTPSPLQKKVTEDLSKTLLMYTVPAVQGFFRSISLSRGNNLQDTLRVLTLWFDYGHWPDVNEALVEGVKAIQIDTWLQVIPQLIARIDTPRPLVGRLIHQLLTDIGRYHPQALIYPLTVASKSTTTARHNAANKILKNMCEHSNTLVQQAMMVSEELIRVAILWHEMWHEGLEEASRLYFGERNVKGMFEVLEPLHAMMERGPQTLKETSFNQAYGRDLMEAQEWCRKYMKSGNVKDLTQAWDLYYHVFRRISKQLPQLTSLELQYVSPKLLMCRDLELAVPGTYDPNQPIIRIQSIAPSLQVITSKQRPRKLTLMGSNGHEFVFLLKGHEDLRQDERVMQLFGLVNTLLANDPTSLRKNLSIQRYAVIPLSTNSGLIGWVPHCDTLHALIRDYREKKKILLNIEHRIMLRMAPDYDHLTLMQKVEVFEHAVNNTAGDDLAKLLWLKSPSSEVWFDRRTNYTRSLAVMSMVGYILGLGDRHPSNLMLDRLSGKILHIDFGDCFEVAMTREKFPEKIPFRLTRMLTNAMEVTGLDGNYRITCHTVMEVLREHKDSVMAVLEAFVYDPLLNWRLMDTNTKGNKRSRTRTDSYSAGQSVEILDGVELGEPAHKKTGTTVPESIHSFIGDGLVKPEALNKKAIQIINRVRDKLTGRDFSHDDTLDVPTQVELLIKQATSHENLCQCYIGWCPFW
Description: Preparation of Reaction Buffers:
Basic buffer composition: 50 mM (mmol/L) HEPES (pH 7.5), 1 mM EGTA, 0.01% Tween-20, 10 mM MnCl2, 2 mM DTT (diluted from 500 mM before used).
(2) mTOR kinase buffer solution: 1650 μL of 2.5×mTOR kinase buffer solution was composed of 1640.2 μL of 1× basic buffer and 9.8 μL of mTOR (0.21 mg/mL stock solution), and the final concentration was 0.5 μg/mL.
(3) Detection buffer solution: 3960 μL of 2× detection buffer solution was composed of 3797.1 μL of TR-FRET buffer diluent (purchased from Thermo Fisher, catalog number: PV3574), 4.5 μL of Tb-anti-p4E-BP1 antibody (3.49 μM stock solution, purchased from Thermo Fisher, catalog number: PV4757) and 158 μL of EDTA (500 mM stock solution), and the final concentrations were 2 nM Tb-anti-p4E-BP1 antibody and 10 mM EDTA.
(1) 20 μL of 100% DMSO solution containing 5 mM compound to be tested was added to a 96-well plate.
(2) The compound was serially diluted 3 times in DMSO.
(3) 1 μL of the compound in the previous step was taken, diluted with 19 μL of mTOR kinase buffer, and transferred to another 96-well plate.
(4) 4 μL of mTOR kinase solution (purchased from Thermo Fisher, catalog number: PV4753) was added to a 384-well plate.
(5) 2 μL of the compound in G was taken out and added to the 384-well plate with mTOR kinase, and incubated at room temperature for 15 minutes.
(6) 4 μL of substrate solution was added to initiate the reaction.
The final concentrations of mTOR reaction solution were: 0.5 μg/mL mTOR, 0.4 μM GFP-4E-BP1, 3 μM ATP.
The final concentration of the DMSO solution was 1%.
(7) Incubation was performed for 60 minutes at room temperature.
(8) 10 μL of detection buffer was added. The final concentrations were 2 nM Tb-anti-p4E-BP1 antibody and 10 mM EDTA.
(9) Incubation was performed for 30 minutes at room temperature.
(10) TR-FRET value was read on MD5 multi-mode plate reader (Molecular Devices). The excitation wavelength was 340 nm, the emission wavelength 1 was 495 nm, and the emission wavelength 2 was 520 nm. The ratio of 520 nm/495 nm readings was calculated as TR-FRET value.
IC50 of compound was fitted by nonlinear regression equation:
Y=Bottom+(Top-Bottom)/(1+10^((LogIC50-X)*HillSlope));
X: common logarithm value of compound concentration; Y: TR-FRET value (520 nm/495 nm).

| SMILES | in vitro anti-EV71 activity, in words [1] | IC50 [1] | inhibitory activity on mTOR kinase, in words [2] | IC50 [2] | melting point |
| --- | --- | --- | --- | --- | --- |
| CC(=O)/C=C/c1cnc2ccc(-c3ccc(C)nc3)cc2c1Nc1cccc(C(F)(F)F)c1 [HTL-2-38, (E)-6-[3-(6-methyl)pyridyl]-4-[3-(trifluoromethyl)phenyl]aminoquinoline-3-butenone] | moderate anti-EV71 activity | 2850 ± 1200 nM | weak inhibitory activity | 1010 nM | 172 to 174 °C |
| COc1cc(-c2ccc3ncc4ccc(=O)n(-c5cccc(C(F)(F)F)c5)c4c3c2)cnc1N [HTL-7-19, 9-[3-(6-amino-5-methoxy)pyridyl]-2-oxo-1-[3-(trifluoromethyl)phenyl]-1,2-dihydrobenzo[h][1,6]naphthyridine] | – | 45 ± 10 nM | excellent inhibitory activity | 7.58 nM | 233 to 234 °C |
| COc1ncc(-c2ccc3ncc4ccc(=O)n(-c5cccc(C(F)(F)F)c5)c4c3c2)cn1 [HTL-7-06, 9-[5-(2-methoxy)pyrimidyl]-2-oxo-1-[3-(trifluoromethyl)phenyl]-1,2-dihydrobenzo[h][1,6]naphthyridine] | – | 50 ± 10 nM | excellent inhibitory activity | 4.82 nM | 262 to 264 °C |
| O=c1ccc2cnc3ccc(-c4ccc5ncccc5c4)cc3c2n1-c1cccc(C(F)(F)F)c1 [HTL-6-47, 9-(6-quinolyl)-2-oxo-1-[3-(trifluoromethyl)phenyl]-1,2-dihydrobenzo[h][1,6]naphthyridine] | – | 250 ± 230 nM | excellent inhibitory activity | 6.17 nM | 196 to 197 °C |
| O=c1ccc2cnc3ccc(C4=CCC5(CC4)OCCO5)cc3c2n1-c1cccc(C(F)(F)F)c1 [HTL-7-13, 9-(1,4-dioxa-spiro[4.5]dec-7-en-8-yl)-2-oxo-1-[3-(trifluoromethyl)phenyl]-1,2-dihydrobenzo[h][1,6]naphthyridine] | – | 26300 ± 12900 nM | – | 86.1 nM | 210 to 211 °C |
| O=c1ccc2cnc3ccc(-c4cccnc4F)cc3c2n1-c1cccc(C(F)(F)F)c1 [HTL-6-48, 9-[3-(2-fluoro)pyridyl]-2-oxo-1-[3-(trifluoromethyl)phenyl]-1,2-dihydrobenzo [h][1,6]naphthyridine] | high activity | 59 nM | – | 31.5 nM | – |
| O=c1ccc2cnc3ccc(-c4cc[nH]n4)cc3c2n1-c1cccc(C(F)(F)F)c1 [HTL-6-50, 9-[(1H)-3-pyrazolyl]-2-oxo-1-[3-(trifluoromethyl)phenyl]-1,2-dihydrobenzo[h][1,6]naphthyridine] | – | > 200000 nM | moderate inhibitory activity | 159 nM | 283 to 286 °C |
| NC(=O)/C=C/c1ccc2ncc3oc(=O)n(-c4cccc(C(F)(F)F)c4)c3c2c1 [HTL-6-30, (E)-8-(2-carbamoyl-vinyl)-1-[3-(trifluoromethyl)phenyl]oxazolo[5,4-c]quinolin-2(1H)-one] | moderate inhibitory activity | 3700 ± 210 nM | better inhibitory activity | 47.6 nM | 291 to 292 °C |
| O=c1ccc2cnc3ccc(-c4ccc(F)nc4)cc3c2n1-c1cccc(C(F)(F)F)c1 [HTL-7-01, 9-[3-(6-fluoro)pyridyl]-2-oxo-1-[3-(trifluoromethyl)phenyl]-1,2-dihydrobenzo[h][1,6]naphthyridine] | – | 70 ± 10 nM | – | 28.8 nM | – |
| O=C(Cc1ccccc1)Nc1ccc(-c2ccc3ncc4ccc(=O)n(-c5cccc(C(F)(F)F)c5)c4c3c2)cn1 [HTL-7-10, 9-[3-(6-phenylacetylamino)pyridyl]-2-oxo-1-[3-(trifluoromethyl)phenyl]-1,2-dihydrobenzo[h][1,6]naphthyridine] | – | 390 ± 180 nM | – | 34.8 nM | – |
| Cc1ncccc1-c1ccc2ncc3ccc(=O)n(-c4cccc(C(F)(F)F)c4)c3c2c1 [HTL-6-49, 9-[3-(2-methyl)pyridyl]-2-oxo-1-[3-(trifluoromethyl)phenyl]-1,2-dihydrobenzo[h][1,6]naphthyridine] | – | 70 ± 10 nM | – | 11.9 nM | – |
| CN1CCN(c2ccc(-c3ccc4ncc5ccc(=O)n(-c6cccc(C(F)(F)F)c6)c5c4c3)cn2)CC1 [HTL-7-17, 9-{3-[6-(4-methylpiperazin-1-yl)pyridyl]}-2-oxo-1-[3-(trifluoromethyl)phenyl]-1,2-dihydrobenzo[h][1,6]naphthyridine] | – | 100 ± 30 nM | excellent inhibitory activity | 1.15 nM | – |
| CCCC(=O)Nc1ccc(-c2ccc3ncc4ccc(=O)n(-c5cccc(C(F)(F)F)c5)c4c3c2)cn1 [HTL-7-05, 9-[3-(6-butyrylamino)pyridyl]-2-oxo-1-[3-(trifluoromethyl)phenyl]-1,2-dihydrobenzo[h][1,6]naphthyridine] | – | 130 ± 60 nM | – | 39 nM | – |
| COc1ccc(CC(=O)Nc2ccc(-c3ccc4ncc5ccc(=O)n(-c6cccc(C(F)(F)F)c6)c5c4c3)cn2)cc1 [HTL-7-11, 9-{3-[6-(4-methoxy)phenylacetylamino]pyridyl}-2-oxo-1-[3-(trifluoromethyl)phenyl]-1,2-dihydrobenzo[h][1,6]naphthyridine] | – | 95 ± 7 nM | – | 32.5 nM | 241 to 243 °C |
| CC(C)(C)OC(=O)Nc1ccc(-c2ccc3ncc4ccc(=O)n(-c5cccc(C(F)(F)F)c5)c4c3c2)cn1 [HTL-7-21, 9-[3-(6-tert-butoxycarbonylamino)pyridyl]-2-oxo-1-[3-(trifluoromethyl)phenyl]-1,2-dihydrobenzo[h][1,6]naphthyridine] | – | 2080 ± 2290 nM | – | 11.9 nM | – |
| NC(=O)c1ccc(-c2ccc3ncc4oc(=O)n(-c5cccc(C(F)(F)F)c5)c4c3c2)cc1 [HTL-5-21, 8-(4-carbamoyl)phenyl-1-[3-(trifluoromethyl)phenyl]oxazolo[5,4-c]quinolin-2(1H)-one] | moderate inhibitory activity | 2000 ± 300 nM | better inhibitory activity | 15.1 nM | 294 to 296 °C |
